Measurements from patent US11365175B2, “Aromatic amides having a fungicidal activity, their agronomic compositions and relative preparation method” (ISAGRO S.p.A., priority 2017, dated 2022).

Key:
Type in all cases: in vivo
Helmintosporium teres = experiment: Fungicidal activity against Helmintosporium teres on barley; details: barley cv. Gemini, scale 0 (plant completely infected) to 100 (healthy plant)
Experimental: Determination of the Fungicidal Activity of the Compounds Having Formula (I) Against Helmintosporium Teres on Barley
Leaves of barley plants (cultivar Gemini), grown in pots in a conditioned environment (20±1° C., 70% of R.H.), were treated by spraying both sides of the leaves with the compounds under examination, dispersed in a […] solution at 20% by volume of acetone.
After remaining 5 days in a conditioned environment, the plants were sprayed on both sides of the leaves with an aqueous suspension of conidia of Helmintosporium teres (50,000 conidia per cm^3 (adding Tween 20-1 drop/100 ml).
The plants were then kept in a controlled environment during the incubation period of the fungus (1 day wet room for infection, 3 days in a cell with R.H. 70% and […] for the incubation period, 3 days for wet room evasion, 12 days biological cycle).
At the end of this period (12 days), the fungicidal activity was evaluated according to an evaluation percentage scale from 0 (plant completely infected) to 100 (healthy plant).

Puccinia recondita = experiment: Preventive fungicidal activity (5 days) against Puccinia recondita on wheat; details: for P5 activity NT (parts developed during the test) / P5 activity T (parts treated directly with the products): wheat Salgemma, inoculation 5 days after spraying, reduction of diseased leaf area vs non-treated
Experimental: Determination of the Preventive Fungicidal Activity (5 Days) Against Puccinia recondita on Wheat
Leaves of wheat plants of the Salgemma variety, grown in pots in a conditioned environment at 20° C. and 70% of Relative Humidity (RH) were treated by spraying both sides of the leaves with the compound under examination (see Table 4 hereunder) dispersed in a hydroacetone solution at 20% by volume of acetone.
After remaining 5 days in a conditioned environment, the plants were sprayed on both sides of the leaves with an aqueous suspension of conidia of Puccinia recondita (2 mg of inoculum per 1 ml of solution for infection).
After spraying, the plants were kept in a humidity-saturated environment at a temperature ranging from 18 to 24° C. for the incubation period of the fungus (1 day).
At the end of this period, the plants were put in a greenhouse with a relative humidity (RH) of 70% and at a temperature of 18-24° C. for 14 days.
At the end of this period, the external symptoms of the pathogen appeared and it was therefore possible to proceed with the visual evaluation of the intensity of the infection, both on the parts treated directly with the products (T) and on the parts developed during the implementation of the test (NT).
The fungicidal activity is expressed as a percentage of the reduction, with respect to non-treated seedlings (comparison), in the area of the leaf affected by the disease (100=full effectiveness; 0=zero effectiveness).

Plasmopara viticola = experiment: Preventive activity (7 days) against Plasmopara viticola on vines; details: vine Merlot, inoculation 7 days after treatment, reduction of diseased leaf area vs non-treated
Experimental: Determination of the Preventive Activity (7 Days) of the Compounds Having Formula (I) Against Plasmopara viticola on Vines
Leaves of vine plants of the Merlot variety, grown in pots, in a conditioned environment, (20±1° C., 70% of R.H.) were treated by spraying both sides with the compound under examination.
7 days after the treatment, the plants were inoculated with an aqueous suspension of spores of Plasmopara viticola (200,000 spores/cc) by spraying both sides of the leaves with a compressed air gun.
After remaining 24 hours in a humidity-saturated environment, at 21° C. the plants were transferred for an incubation period (7 days) in a conditioned environment at 70% of R H. and at 24° C.
At the end of this period, the external symptoms of the pathogen appeared and it was therefore possible to proceed with the evaluation of the intensity of the infection.
The fungicidal activity was expressed as the reduction percentage, with respect to non-treated seedlings, in the area of the leaf affected by the disease (100=full effectiveness; 0=zero effectiveness).

Compound	P7 activity (Helmintosporium teres; 125 ppm)	P7 activity (Helmintosporium teres; 250 ppm)	P5 activity NT (parts developed during the test) (Puccinia recondita; 125 ppm)	P5 activity T (parts treated directly with the products) (Puccinia recondita; 125 ppm)	P5 activity NT (parts developed during the test) (Puccinia recondita; 250 ppm)	P5 activity T (parts treated directly with the products) (Puccinia recondita; 250 ppm)	P7 activity (Plasmopara viticola; 30 ppm)	P7 activity (Plasmopara viticola; 125 ppm)	fungicidal activity (full activity) (Puccinia recondita; dosage of 250 ppm, T/NT not specified)
CC1(C)CC(NC(=O)c2cccc(NC=O)c2O)CC(C)(C)C1 [CR1, 3-formylamino-2-hydroxy-N-(3,3,5,5-tetramethylcyclohexyl)benzamide, reference compound]	5%	15%	35%	50%	50%	65%	50%	65%	
CC(C)C(=O)OCOc1c(NC=O)cccc1C(=O)NC1CC(C)(C)CC(C)(C)C1 [Compound 1, 3-formylamino-2-[(2-methyl-propanoyl-oxy)methoxy]-N-(3,3,5,5-tetramethylcyclohexyl)benzamide]	75%	80%	60%	70%	65%	75%	100%	100%	100%
CC(C)C(=O)OCOc1c(C(=O)NC2CC(C)(C)CC(C)(C)C2)cccc1N(C=O)COC(=O)C(C)C [Compound 4, 3-(N′-formyl-N′-[(2-methylpropanoyl-oxy)methyl]amino)-2-[(2-methylpropanoyloxy)methoxy]-N-(3,3,5,5-tetramethylcyclohexyl)-benzamide]			65%	70%	70%	80%	100%	100%	
